Data as given in patent US20100267561A1, “HERBICIDAL PYRIDAZINONE DERIVATIVES” (priority 2007, published 2010).

How the values were obtained:
Type in all cases: in vivo
[1] = tested on: yellow nutsedge (Cyperus esculentus); test: Test B pre-/postemergence plant response; details: for Nutsedge, Yellow plant response rating: 8 g ai/ha
Outline: (§1)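 Visual scoring from 0 (no effect) to 100 (complete control) against untreated controls was done 13 to 15 days after greenhouse treatment. Chemicals were formulated in a surfactant-containing non-phytotoxic solvent and applied to soil preemergence or to 1- to 4-leaf (2-18 cm) plants postemergence.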

[2] = tested on: wheat (Triticum aestivum); test: Test B pre-/postemergence plant response; details: for Wheat plant response rating: 8 g ai/ha
Outline: as §1

[3] = tested on: large crabgrass (Digitaria sanguinalis); test: Test B pre-/postemergence plant response; details: for Crabgrass, Large plant response rating: 8 g ai/ha
Outline: as §1

[4] = tested on: johnsongrass (Sorghum halepense); test: Test B pre-/postemergence plant response; details: for Johnsongrass plant response rating: 8 g ai/ha
Outline: as §1

[5] = tested on: common (oilseed) sunflower (Helianthus annuus); test: Test B pre-/postemergence plant response; details: Preemergence
Outline: as §1

[6] = tested on: catchweed bedstraw (Galium aparine); test: Test B pre-/postemergence plant response; details: Preemergence
Outline: as §1

[7] = tested on: cocklebur (Xanthium strumarium); test: Test B pre-/postemergence plant response; details: for Cocklebur plant response rating: 8 g ai/ha
Outline: as §1

[8] = tested on: common ragweed (Ambrosia elation); test: Test B pre-/postemergence plant response; details: for Ragweed plant response rating: 8 g ai/ha
Outline: as §1

[9] = tested on: goosegrass (Eleusine indica); test: Test B pre-/postemergence plant response; details: for Goosegrass plant response rating: 8 g ai/ha
Outline: as §1

[10] = tested on: blackgrass (Alopecurus myosuroides); test: Test B pre-/postemergence plant response; details: for Blackgrass plant response rating: 8 g ai/ha
Outline: as §1

wild oat (Avena fatua) = test: Test B pre-/postemergence plant response; details: for Oat, Wild plant response rating: 8 g ai/ha
Outline: as §1

[11] = tested on: giant foxtail (Setaria faberii); test: Test B pre-/postemergence plant response; details: for Foxtail, Giant plant response rating: 8 g ai/ha
Outline: as §1

[12] = tested on: lambsquarters (Chenopodium album); test: Test B pre-/postemergence plant response; details: for Lambsquarters plant response rating: 8 g ai/ha
Outline: as §1

[13] = tested on: windgrass (Apera spica-venti); test: Test B postemergence plant response; details: for Plant response rating, Windgrass: Postemergence
Outline: (§2)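 Visual injury ratings on a 0–100 scale, where 100 means complete control, were made 13 to 15 days after postemergence treatment of greenhouse-grown plants at the 1- to 4-leaf stage.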

[14] = tested on: winter barley (Hordeum vulgare); test: Test B postemergence plant response; details: for Plant response rating, Barley: Postemergence, scale 0 to 100, 0 no effect, 100 complete control
Outline: as §2

[15] = Postemergence, 16 g ai/ha, scale 0 to 100
[16] = Postemergence, 31 g ai/ha, scale 0 to 100, 0 no effect, 100 complete control
[17] = Postemergence, 62 g ai/ha, scale 0 to 100, 0 no effect, 100 complete control
[18] = Preemergence, 16 g ai/ha, scale 0 to 100 (0 no effect, 100 complete control)
[19] = Preemergence, 31 g ai/ha, 0 to 100 scale, 0 no effect, 100 complete control
[20] = Preemergence, 62 g ai/ha, scale 0 to 100
[21] = 16 g ai/ha, scale 0 to 100 (0 no effect, 100 complete control)
[22] = 31 g ai/ha, 0 to 100 scale, 0 no effect, 100 complete control
[23] = 8 g ai/ha, postemergence, 0-100 scale

COC(=O)Oc1cnn(C)c(=O)c1-n1nc(-c2ccc(Cl)cc2)cc1C [Compound 33]
100: Plant response rating, Crabgrass, Large [3, 17] | Plant response rating, Johnsongrass [4, 20] | Plant response rating, Goosegrass [9, 17] | Plant response rating, Blackgrass [10, 18] | Plant response rating, Blackgrass [10, 19] | Plant response rating, Blackgrass [10, 20] | Foxtail, Giant plant response rating ([11]; postemergence, 0-100 scale) | Plant response rating, Foxtail, Giant [11, 15] | Plant response rating, Foxtail, Giant [11, 16] | Plant response rating, Foxtail, Giant [11, 17] | Plant response rating, Foxtail, Giant [11, 18] | Plant response rating, Foxtail, Giant [11, 19] | Plant response rating, Foxtail, Giant [11, 20] | Foxtail, Giant plant response rating ([11]; Preemergence, scale 0 to 100)
0: Nutsedge, Yellow plant response rating ([1]; postemergence, 0-100 scale) | Plant response rating, Nutsedge, Yellow [1, 15] | Plant response rating, Nutsedge, Yellow [1, 16] | Plant response rating, Nutsedge, Yellow [1, 17] | Plant response rating, Nutsedge, Yellow [1, 18] | Plant response rating, Nutsedge, Yellow [1, 19] | Plant response rating, Nutsedge, Yellow [1, 20] | Nutsedge, Yellow plant response rating ([1]; Preemergence, scale 0 to 100) | Plant response rating, Wheat [2, 18] | Wheat plant response rating ([2]; Preemergence, scale 0 to 100) | Plant response rating, Sunflower [5, 21] | Plant response rating, Sunflower [5, 22] | Plant response rating, Sunflower ([5]; 62 g ai/ha, scale 0 to 100) | Sunflower plant response rating ([5]; 8 g ai/ha, scale 0 to 100) | Plant response rating, Galium [6, 21] | Plant response rating, Galium [6, 22] | Plant response rating, Galium ([6]; 62 g ai/ha, scale 0 to 100) | Galium plant response rating ([6]; 8 g ai/ha, scale 0 to 100) | Cocklebur plant response rating ([7]; postemergence, 0-100 scale) | Plant response rating, Cocklebur [7, 15] | Plant response rating, Cocklebur [7, 16] | Plant response rating, Cocklebur [7, 17] | Plant response rating, Cocklebur [7, 18] | Plant response rating, Cocklebur [7, 19] | Cocklebur plant response rating ([7]; Preemergence, scale 0 to 100) | Ragweed plant response rating ([8]; postemergence, 0-100 scale) | Plant response rating, Ragweed [8, 15] | Plant response rating, Ragweed [8, 16] | Plant response rating, Ragweed [8, 17] | Plant response rating, Ragweed [8, 18] | Plant response rating, Ragweed [8, 19] | Plant response rating, Ragweed [8, 20] | Ragweed plant response rating ([8]; Preemergence, scale 0 to 100) | Lambsquarters plant response rating ([12]; postemergence, 0-100 scale) | Plant response rating, Lambsquarters [12, 15] | Plant response rating, Lambsquarters [12, 16] | Plant response rating, Lambsquarters [12, 17] | Plant response rating, Lambsquarters [12, 18] | Plant response rating, Lambsquarters [12, 19] | Plant response rating, Lambsquarters [12, 20] | Lambsquarters plant response rating ([12]; Preemergence, scale 0 to 100) | Barley plant response rating [14, 23]
95: Plant response rating, Crabgrass, Large [3, 18] | Plant response rating, Crabgrass, Large [3, 19] | Plant response rating, Johnsongrass [4, 18] | Plant response rating, Blackgrass [10, 17] | Plant response rating, Oat, Wild (wild oat (Avena fatua); [15]) | Plant response rating, Oat, Wild (wild oat (Avena fatua); [16])
80: Plant response rating, Wheat [2, 20] | Plant response rating, Blackgrass [10, 16] | Plant response rating, Oat, Wild (wild oat (Avena fatua); [18]) | Plant response rating, Oat, Wild (wild oat (Avena fatua); [19])
10: Windgrass plant response rating [13, 23]
90: Plant response rating, Crabgrass, Large [3, 15] | Plant response rating, Crabgrass, Large [3, 16] | Plant response rating, Johnsongrass [4, 17] | Plant response rating, Goosegrass [9, 16] | Oat, Wild plant response rating (wild oat (Avena fatua); postemergence, 0-100 scale) | Plant response rating, Oat, Wild (wild oat (Avena fatua); [20])
25: Plant response rating, Barley ([14]; 16 g ai/ha)
20: Wheat plant response rating ([2]; postemergence, 0-100 scale)
50: Plant response rating, Wheat [2, 19] | Goosegrass plant response rating ([9]; postemergence, 0-100 scale) | Plant response rating, Windgrass ([13]; 16 g ai/ha, scale 0 to 100)
85: Plant response rating, Johnsongrass [4, 16] | Goosegrass plant response rating ([9]; Preemergence, scale 0 to 100)
98: Plant response rating, Wheat [2, 17] | Plant response rating, Crabgrass, Large [3, 20] | Plant response rating, Johnsongrass [4, 19] | Plant response rating, Goosegrass [9, 18] | Plant response rating, Goosegrass [9, 19] | Plant response rating, Goosegrass [9, 20] | Plant response rating, Oat, Wild (wild oat (Avena fatua); [17])
70: Plant response rating, Wheat [2, 15] | Crabgrass, Large plant response rating ([3]; postemergence, 0-100 scale) | Crabgrass, Large plant response rating ([3]; Preemergence, scale 0 to 100) | Johnsongrass plant response rating ([4]; postemergence, 0-100 scale) | Plant response rating, Johnsongrass [4, 15] | Plant response rating, Goosegrass [9, 15] | Blackgrass plant response rating ([10]; postemergence, 0-100 scale) | Plant response rating, Blackgrass [10, 15] | Oat, Wild plant response rating (wild oat (Avena fatua); Preemergence, scale 0 to 100) | Plant response rating, Windgrass ([13]; 62 g ai/ha, scale 0 to 100, 0 no effect, 100 complete control)
60: Johnsongrass plant response rating ([4]; Preemergence, scale 0 to 100) | Blackgrass plant response rating ([10]; Preemergence, scale 0 to 100)
30: Plant response rating, Barley ([14]; 31 g ai/ha) | Plant response rating, Barley ([14]; 62 g ai/ha)
